The values below come from patent US11286263B2, “Macrocyclic fluorine substituted indole derivatives” (The Broad Institute, Inc., priority 2017, dated 2022).

In test [1] the target is BCL-2 (Homo sapiens (Human), UniProt P10415). The test is described as follows: Protein-protein interaction assay BCL-2/Bad BH3 peptide (BCL-2 assay), TR-FRET. The class given is binding. The conditions noted are these: BCL-2/Bad BH3 peptide TR-FRET; median. How it is done: Assay 3 Protein-Protein Interaction assay: BCL-2/Bad BH3 Peptide (BCL-2 Assay)
The dose-dependent inhibition by the compounds described in this invention of the interaction between BCL-2 and the BH3 domain of Bad (both human) was determined using a steady state binding competition assay with time-resolved fluorescence energy transfer (TR-FRET) readout. For that purpose BCL-2 (amino acids 1-211, C-terminal fused to a hexahistidine (6× His) tag (SEQ ID 5) and a synthetic Bad BH3-derived peptide of sequence Biotin-PEG2-PEG2-NLWAAQRYGRELRR-Nle-SDEFVDSFKK-amide (SEQ ID 4) served as protein receptor and tracer ligand respectively. The recombinant BCL-2 protein (expressed in E. coli) was purchased from BPS Bioscience (San Diego, Calif., USA). The Bad BH3-derived peptide can be obtained from e.g. Biosyntan (Berlin, Germany).
In the assay 11 different concentrations of each compound (0.1 nM, 0.33 nM, 1.1 nM, 3.8 nM, 13 nM, 44 nM, 0.15 μM, 0.51 μM, 1.7 μM, 5.9 μM and 20 μM) were typically measured as duplicates in the same microtiter plate. For that, 100-fold concentrated DMSO solutions were prepared by serial dilutions (1:3.4) of a 2 mM stock solution in a clear, 384-well microtiter plate (Greiner Bio-One, Frickenhausen, Germany). From there, 50 nl were transferred in a dark test plate (Greiner Bio-One, Frickenhausen, Germany). The assay was initiated by addition of 2 μl of a 2,5-fold concentrated His-BCL-2 solution (usually for a 1 nM end concentration in 5 μl reaction volume) in aqueous assay buffer [50 mM Tris/HCl pH 7, 100 mM sodium chloride (NaCl), 50 mM potassium fluoride (KF), 0.005% Tween-20, 2 mM DTT, 0.1% bovine gamma globulin (BGG)] to the compounds in the assay plate. This was followed by a 10-minute incubation step at 22° C. for pre-equilibration of the putative complex between His-BCL-2 and the compounds. After that, 3 μl of a 1.67-fold concentrated solution (in assay buffer) consisting of Bad BH3-derived peptide (1 nM end concentration) and TR-FRET detection reagents [1.67 nM anti-His-Eu cryptate and 1.67 nM streptavidin-XL665 (both from Cisbio Bioassays, Codolet, France)], were added.
The mixture was incubated in the dark for one hour at 22° C. and then overnight at 4° C. The formation of BCL-2/Bad complexes was determined by measuring the resonance energy transfer of the anti-His-Eu-cryptate antibody to the streptavidin-XL665 present in the reaction. For that purpose, the fluorescence emission at 620 nm and 665 nm after excitation at 330-350 nm was measured in a TR-FRET measuring instrument, for instance a Rubystar or a Pherastar (both from BMG Lab Technologies, Offenburg, Germany) or a Viewlux (Perkin-Elmer). The ratio of the emission at 665 nm and at 622 nm was used as indicator of the amount of BCL-2/Bad complexes present.
The resulting data (ratio) were normalized, taking 0% inhibition as the mean value of control measurements (usually 32 data points) where all reagents were included. In this case 50 nl DMSO were used instead of compounds. A 100% inhibition corresponded to the mean value of control measurements (usually 32 data points) where all reagents except BCL-2 were included. IC50 values were determined by regression analysis based on a 4 parameter equation (minimum, maximum, IC50, Hill; Y=Max+(Min−Max)/(1+(X/IC50)^Hill) using the Screener Software (Genedata).

Test [2] has as its system SUDHL5. The test is described as follows: Induction of caspase-3/7 activity, SUDHL5 (Assay 4). The class given is cell-based. Conditions: SUDHL5 cells. The method in brief: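 DLBCL lines treated with compounds for 3 h at 37° C.; caspase-3/7 activity read by Caspase-Glo 3/7 luminescence. Medium-only background subtracted; EC50 fitted with bottom fixed at 1 and top set to reference compound's maximal induction.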

Test [3] deals with MV-4-11. As to the kind of experiment: Antiproliferation assay MV-4-11 (Assay 7). Format: cell-based. The conditions noted are these: MV-4-11 cells, CellTiter-Glo, single determinations, read-out: IC50 Antiproli MV-4-11. The method in brief: (§1)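 CellTiter-Glo luminescence readout; 72 h compound exposure, 37 °C, humidified; rim wells excluded; time-zero reference plate plated in parallel and read identically.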
On the technique in general: In ATP-based viability assays light output follows the ATP content of the culture.

The subject of test [4] is A2780. As to the kind of experiment: Antiproliferation assay A2780 (Assay 7). Format: cell-based. Conditions: A2780 cells, CellTiter-Glo, single determinations, read-out: IC50 Antiproli A2780. The method in brief: as §1
Test [5] deals with SUDHL5. As to the kind of experiment: Induction of cytotoxicity, SUDHL5 (Assay 6). Conditions: Homo sapiens, SU-DHL-5, 5 h, read-out: IC50 Cytotox SUDHL5 [M] (median), SUDHL5 cells, 5 h, CellTiter-Glo.
Description: (§2) In principle, compounds that induce apoptosis will concomitantly induce cell cytotoxicity. Therefore, cytotoxicity assays were run in parallel in SUDHL5 and SUDHL10 cells.
(§3) The different cell lines were plated in culture medium (RPMI 1640 [GIBCO #22400-089] supplemented with 10% Fetal Bovine Serum) at a density of 3,300 cells in 30 μl/well in a sterile, solid black, flat bottom, polystyrene, TC-treated 384-well microplate (Corning #3571) using Multidrop Combi Reagent Dispenser. As a control, medium without cells was also added to the plate. Cells were incubated in a humidified incubator at 37° C. overnight. On the next day, the cells were treated with compounds (stock solution, 10 mM in DMSO) using the HP D300 Digital Dispenser in a concentration range of 3.3×10e-5 M (33 μM) to 5×10e-9 M (5 nM) in a single-dot curve with at least 16 dilutions and a DMSO concentration of 0.33%. Rim wells were excluded. The cells were incubated for 5 h hours in a humidified incubator at 37° C. After this incubation, 30 μl of CellTiter-Glo® Luminescent Cell Viability reagent (Promega, G7573) was added to each well using the Multidrop Combi Reagent Dispenser, followed by 15 min incubation on a shaker at room temperature. Finally, luminescence was read at 0.1 ms, with a gain of 3000 using the PHERAstar FS microplate reader (BMG Labtech).
(§4) The Bella DRC Master Sheet was used to calculate IC50s, with fixed CI=0 and C0=1.
The test system of test [6] is SUDHL10. The test is described as follows: Induction of cytotoxicity, SUDHL10 (Assay 6). The conditions noted are these: Homo sapiens, SU-DHL10, 5 h, read-out: IC50 Cytotox SUDHL10 [M] (median), SUDHL10 cells, 5 h, CellTiter-Glo.
Description: as §2, §3, §4
The mark [7] stands for this setting: Homo sapiens, SU-DHL-5, 3 h, Caspase-Glo 3/7, median.

Several values for one entry are separate records, joined by “and”; a condition that tells them apart may be missing. Equal values may be shown once. Read-outs that look alike come from different tables or passages of the source. A value given as a limit tells only on which side of the number the result lay.

Chain of BCL-2 (P10415 1-211): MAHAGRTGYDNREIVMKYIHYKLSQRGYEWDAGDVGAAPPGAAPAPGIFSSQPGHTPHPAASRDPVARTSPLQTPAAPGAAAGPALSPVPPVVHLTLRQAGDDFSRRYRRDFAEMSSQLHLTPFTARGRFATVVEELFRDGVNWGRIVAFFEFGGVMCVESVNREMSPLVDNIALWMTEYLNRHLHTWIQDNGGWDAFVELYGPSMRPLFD

For `Cc1c2c(nn1C)COC/C=C\Cn1c(C(=O)O)c(CCCOc3cccc4ccccc34)c3ccc(F)c-2c31` (racemic) [Example 1, (rac)-(11Z)-4-fluoro-2,3-dimethyl-7-[3-(naphthalen-1-yloxy)propyl]-2,10,13,15-tetrahydro-pyrazolo[4′,3′:9,10][1,6]oxazacycloundecino[8,7,6-hi]indole-8-carboxylic acid], the half-maximal inhibitory concentration (IC50) is over 20 µM in test [1]; 11.3 µM in test [3] (Homo sapiens, MV4-11, 72 h); 14.2 µM in test [3] (72 h, listed as 01); 21.1 µM in test [4] (72 h, listed as 01); over 33 µM in test [4] (Homo sapiens, A2780, 72 h); 1.2e-06 M in test [5]. Moreover, in test [6], the 50% inhibitory concentration (IC50) was determined as 3.8e-06 M. In test [2] (setting [7]), this compound yielded an EC50 of 1.4 µM.
For the compound `Cc1nn(C)c2c1-c1c(F)ccc3c(CCCOc4cccc5ccccc45)c(C(=O)O)n(c13)C/C=C\COC2` (racemic) [Example 9, (rac)-(Z)-13-fluoro-10,12-dimethyl-1-(3-(naphthalen-1-yloxy)propyl)-4,7,9,10-tetrahydro-pyrazolo[4′,3′:9,10][1]oxa[6]azacycloundecino[8,7,6-hi]indole-2-carboxylic acid], the 50% inhibitory concentration (IC50) in test [1] was over 20 µM; in test [3] (Homo sapiens, MV4-11, 72 h), 7.5 µM; in test [3] (72 h, listed as 09) it was 6.04 µM; in test [4] (72 h, listed as 09), 20.7 µM; in test [4] (Homo sapiens, A2780, 72 h), 23.1 µM; in test [5], 2.9e-06 M. Besides, in test [6], the half-maximal inhibitory concentration (IC50) turned out to be 1.5e-05 M. The EC50 in test [2] (setting [7]) turned out to be 2.7 µM.
As for `Cc1nn(C)c2c1-c1c(F)ccc3c(CCCOc4cccc5ccccc45)c(C(=O)O)n(c13)CCCCOC2` (racemic) [Example 10, (rac)-13-fluoro-10,12-dimethyl-1-(3-(naphthalen-1-yloxy)propyl)-4,5,6,7,9,10-hexahydro-pyrazolo[4′,3′:9,10][1]oxa[6]azacycloundecino[8,7,6-hi]indole-2-carboxylic acid], the concentration for half-maximal inhibition (IC50) in test [1] is over 20 µM; in test [3] (Homo sapiens, MV4-11, 72 h), 6.53 µM; in test [3] (72 h), 4.39 µM; in test [4] (Homo sapiens, A2780, 72 h) it was over 33 µM; in test [5] it was 1.8e-06 M; in test [6] it was 3.6e-06 M. Further, in test [2] (setting [7]), the concentration giving a half-maximal response (EC50) came to 1.7 µM.
Take `CCc1nn(C)c2c1-c1c(F)ccc3c(CCCOc4cccc5ccccc45)c(C(=O)O)n(c13)C/C=C\COC2` (racemic) [Example 11, (rac)-(Z)-12-ethyl-13-fluoro-10-methyl-1-(3-(naphthalen-1-yloxy)propyl)-4,7,9,10-tetrahydro-pyrazolo[4′,3′:9,10][1]oxa[6]azacycloundecino[8,7,6-hi]indole-2-carboxylic acid]: the IC50 was over 20 µM in test [1]; 7.67 µM in test [3] (Homo sapiens, MV4-11, 72 h); 12.8 µM in test [3] (72 h); 23.5 µM in test [4] (72 h); 15.3 µM in test [4] (Homo sapiens, A2780, 72 h); 2.3e-06 M in test [5]. Also, the IC50 in test [6] turned out to be 7.2e-06 M. This compound also showed an EC50 in test [2] (setting [7]) of 2.1 µM.
As for `Cc1c2c(nn1C)COCCCCn1c(C(=O)O)c(CCCOc3cccc4c3CCC4)c3ccc(F)c-2c31` (racemic) [Example 19, (rac)-1-(3-((2,3-dihydro-1H-inden-4-yl)oxy)propyl)-13-fluoro-11,12-dimethyl-4,5,6,7,9,11-hexahydropyrazolo[4′,3′:9,10][1]oxa[6]azacycloundecino[8,7,6-hi]indole-2-carboxylic acid], the IC50 in test [1] was over 20 µM; in test [3] (Homo sapiens, MV4-11, 72 h), 4.3 µM; in test [3] (72 h), 2.9 µM and 4.9 µM; in test [4] (Homo sapiens, A2780, 72 h) it was 16.5 µM; in test [5] it was 1.4e-06 M; in test [6], 2.1e-06 M. In addition, the EC50 in test [2] (setting [7]) was found to be 0.96 µM.
With `CCc1c2c(nn1C)COCCCCn1c(C(=O)O)c(CCCOc3cccc4c3CCCC4)c3ccc(F)c-2c31` (racemic) [Example 29, (rac)-12-ethyl-13-fluoro-11-methyl-1-(3-((5,6,7,8-tetrahydronaphthalen-1-yl)oxy)propyl)-4,5,6,7,9,11-hexahydropyrazolo[4′,3′:9,10][1]oxa[6]azacycloundecino[8,7,6-hi]indole-2-carboxylic acid], the concentration for half-maximal inhibition (IC50) in test [1] is over 20 µM; in test [3] (Homo sapiens, MV4-11, 72 h), 2.04 µM; in test [3] (72 h), 2.55 µM; in test [4] (Homo sapiens, A2780, 72 h) it was 9.17 µM; in test [5] it was 1.2e-06 M; in test [6] it was 1.8e-06 M. In test [2] (setting [7]), this compound gave an EC50 of 1.2 µM.
As to `CCc1c2c(nn1C)COCCCCn1c(C(=O)O)c(CCCOc3cc(C)c(Cl)c(C)c3)c3ccc(F)c-2c31` (racemic) [Example 31, (rac)-1-(3-(4-chloro-3,5-dimethylphenoxy)propyl)-12-ethyl-13-fluoro-11-methyl-4,5,6,7,9,11-hexahydropyrazolo[4′,3′:9,10][1]oxa[6]azacycloundecino[8,7,6-hi]indole-2-carboxylic acid], the IC50 in test [1] was over 20 µM; in test [3] (Homo sapiens, MV4-11, 72 h), 6.07 µM; in test [3] (72 h) it was 8.25 µM; in test [4] (Homo sapiens, A2780, 72 h), 12.1 µM; in test [5], 2.9e-06 M; in test [6], 3.6e-06 M. Moreover, in test [2] (setting [7]), it took 2.5 µM to reach a half-maximal effect (EC50).
On to `Cc1nn(C)c2c1-c1c(F)ccc3c(CCCOc4cccc5cc(F)ccc45)c(C(=O)O)n(c13)CCCCOC2` (racemic) [Example 32, (rac)-13-fluoro-1-(3-((6-fluoronaphthalen-1-yl)oxy)propyl)-10,12-dimethyl-4,5,6,7,9,10-hexahydropyrazolo[4′,3′:9,10][1]oxa[6]azacycloundecino[8,7,6-hi]indole-2-carboxylic acid], for which the 50% inhibitory concentration (IC50) in test [1] was over 20 µM; in test [3] (Homo sapiens, MV4-11, 72 h) it was 4.85 µM; in test [3] (72 h) it was 4.8 µM and 4.75 µM; in test [4] (Homo sapiens, A2780, 72 h), 15.2 µM; in test [5] it was 1.1e-06 M; in test [6], 2e-06 M. This compound showed an EC50 in test [2] (setting [7]) of 0.8 µM.
Turning to “(rac)-1-(3-((2,3-dihydro-1H-inden-4-yl)oxy)propyl)-12-ethyl-13-fluoro-11-methyl-4,5,6,7,9,11-hexahydropyrazolo[4′,3′:9,10][1]oxa[6]azacycloundecino[8,7,6-hi]indole-2-carboxylic acid [Example 30]”, the IC50 is over 20 µM in test [1]; 1.77 µM and 3.04 µM in test [3] (72 h); 11.2 µM in test [4] (72 h). In test [2] (3 h, Caspase-Glo 3/7, median), this compound displayed an EC50 of 0.87 µM.

In general, IC50 refers to the concentration that gives 50% inhibition. What is called EC50 is the concentration at which the effect is half-maximal. High values mean weaker potency, low ones greater potency.
